EPA's ToxRefDB 2

Key:
rat [1] = conditions: Carcinogenicity; other; Oral; Gavage/Intubation; dose end: 78 week; group: systemic; systemic / in life observation / body weight / body weight gain + systemic / pathology microscopic / kidney / nephropathy + systemic / …
mouse [2] = conditions: Carcinogenicity, b6c3f1, Oral, Gavage/Intubation, dose end: 60 week, group: systemic
rat [3] = conditions: Prenatal developmental toxicity study, other, Oral, Gavage/Intubation, dose end: 15 GD
rabbit = conditions: Prenatal developmental toxicity study, new zealand white, Oral, Gavage/Intubation, dose end: 19 GD
rat [4] = conditions: Subchronic oral toxicity in rodents, sprague dawley, Feed, dose end: 13 week, group: systemic
mouse [5] = conditions: Carcinogenicity; b6c3f1; Oral; Feed; dose end: 2 year; group: systemic; systemic / in life observation / body weight / body weight
rat [6] = conditions: Combined chronic toxicity/carcinogenicity, fischer, Oral, Feed, dose end: 2 year, group: systemic
mouse [7] = conditions: Subchronic oral toxicity in rodents, b6c3f1, Feed, dose end: 91 day, group: systemic, systemic / in life observation / body weight / body weight gain
rat [8] = conditions: Subchronic oral toxicity in rodents, fischer, Feed, dose end: 26 week, group: systemic
rat [9] = conditions: Fertility (Segment I), fischer, Oral, Feed, dose end: 16 weeks (premating)
rat [10] = conditions: Prenatal developmental toxicity study, sprague dawley, Oral, Feed, dose end: 15 GD
rat [11] = conditions: Multigenerational reproductive toxicity study, other, Oral, Gavage/Intubation, dose end: 2 generation
mouse [12] = conditions: Prenatal developmental toxicity study, cd1, Oral, Feed, dose end: 15 GD
rat [13] = conditions: Combined chronic toxicity/carcinogenicity, fischer, Oral, Feed, dose end: 2 year, group: systemic; remark: listed apart in the source
rat [14] = conditions: Multigenerational reproductive toxicity study, other, Oral, Gavage/Intubation, dose end: 2 generation; remark: listed apart in the source
dog = conditions: Chronic toxicity, beagle, Injection, Subcutaneous, dose end: 74 week, group: systemic
rat [15] = conditions: Developmental neurotoxicity study; other; Injection; Intraperitoneal; dose end: 141 PND; group: cannot be grouped; systemic / clinical chemistry / norepinephrine (noradrenaline) / norepinephrine (noradrenaline) + systemic / in life observation / water …
rat [16] = conditions: Developmental neurotoxicity study; wistar; Oral; Water; dose end: 60 PND; group: cannot be grouped; systemic / in life observation / body weight / offspring (pup) weight gain
[17] = systemic / pathology microscopic / kidney / nephropathy
[18] = systemic / pathology microscopic / kidney / nephropathy + systemic / pathology microscopic / stomach / squamous cell carcinoma + systemic / …
[19] = group: developmental, developmental / developmental malformation / bone / incomplete ossification + developmental / developmental malformation / bone / unossified
[20] = group: maternal, reproductive / reproductive performance / aborted / aborted + systemic / in life observation / body weight / body weight + systemic / in …
[21] = group: developmental, developmental / developmental malformation / general / [other] + developmental / developmental malformation / bone / arthrogryposis + …
[22] = group: maternal, systemic / in life observation / body weight / body weight + systemic / in life observation / food consumption / food efficiency + systemic…
[23] = systemic / clinical chemistry / alanine aminotransferase (alt/sgpt) / alanine aminotransferase (alt/sgpt) + systemic / clinical chemistry / …
[24] = systemic / urinalysis / appearance and color / appearance and color + systemic / organ weight / liver / relative to body weight
[25] = systemic / organ weight / kidney / relative to body weight
[26] = systemic / hematology / anemia / anemia - macrocytic + systemic / hematology / erythrocyte (rbc) count differential / erythrocyte (rbc) + …
[27] = group: maternal, reproductive / reproductive performance / fertility / fertility
[28] = group: parental, systemic / hematology / erythrocyte (rbc) count differential / erythrocyte (rbc) + systemic / hematology / hemoglobin (hgb) / hemoglobin (…
[29] = group: developmental, developmental / developmental malformation / bone / [other] + developmental / developmental malformation / bone / bipartite ossification + …
[30] = group: maternal, reproductive / reproductive performance / resorptions / resorptions + systemic / in life observation / body weight / body weight + systemic…
[31] = group: offspring, developmental / developmental landmark / anogenital distance (agd) / anogenital distance (agd)
[32] = group: parental, systemic / in life observation / clinical signs / salivation + systemic / organ weight / kidney / absolute + systemic / organ weight / …
[33] = group: reproductive, reproductive / reproductive performance / fertility / fertility
[34] = group: developmental, developmental / developmental malformation / bone / exencephaly + developmental / developmental malformation / bone / [other] + …
[35] = group: maternal, reproductive / offspring survival early / litter size / litter size + reproductive / offspring survival early / live fetuses / live fetuses…
[36] = systemic / in life observation / body weight / body weight + systemic / in life observation / food consumption / food consumption + systemic…
[37] = systemic / pathology gross / full gross necropsy / leukemia mononuclear + systemic / in life observation / body weight / body weight + …
[38] = group: offspring, systemic / clinical chemistry / triiodothyronine (t3) / triiodothyronine (t3), total + systemic / in life observation / body weight / …
[39] = group: reproductive, reproductive / offspring survival early / live fetuses / live fetuses
[40] = systemic / clinical chemistry / cholesterol / cholesterol + systemic / clinical chemistry / glucose / glucose + systemic / hematology / […
[41] = systemic / clinical chemistry / cholesterol / cholesterol + systemic / hematology / [other] / [other] + systemic / hematology / hematocrit (…

## ClCC(Br)CBr (stereo not drawn) [1,2-Dibromo-3-chloropropane]
Rat [1]
  LEL: 15 mg/kg/day
  LOAEL: 15 mg/kg/day
  NEL: < 15 mg/kg/day
  NOAEL: < 15 mg/kg/day
Mouse [2]; [17]
  LOAEL: 110 mg/kg/day
  NOAEL: < 110 mg/kg/day
Mouse [2]; [18]
  LEL: 110 mg/kg/day
  NEL: < 110 mg/kg/day

## CCC(C)Nc1c([N+](=O)[O-])cc(C(C)(C)C)cc1[N+](=O)[O-] (stereo not drawn) [Butralin]
Rat [3]; [19]
  LEL: 500 mg/kg/day
  LOAEL: 500 mg/kg/day
  NEL: < 500 mg/kg/day
  NOAEL: < 500 mg/kg/day
Rat [3]; [20]
  LEL: 1250 mg/kg/day
  LOAEL: 1250 mg/kg/day
  NEL: 500 mg/kg/day
  NOAEL: 500 mg/kg/day
rabbit; group: developmental, developmental / developmental malformation / general / [other]
  LOAEL: 45 mg/kg/day
rabbit; [21]
  LEL: 45 mg/kg/day
  NEL: 15 mg/kg/day
  NOAEL: 15 mg/kg/day
rabbit; group: maternal, systemic / in life observation / body weight / body weight + systemic / in life observation / food consumption / food efficiency
  LOAEL: 135 mg/kg/day
rabbit; [22]
  LEL: 135 mg/kg/day
  NEL: 45 mg/kg/day
  NOAEL: 45 mg/kg/day
Rat [4]; [23]
  LOAEL: 50 mg/kg/day
  NOAEL: 10 mg/kg/day
Rat [4]; [24]
  LEL: 10 mg/kg/day
  NEL: < 10 mg/kg/day

## CCCCOC(=O)c1ccccc1C(=O)OCc1ccccc1 [Butyl benzyl phthalate]
Mouse [5]
  LEL: 900 mg/kg/day
  LOAEL: 900 mg/kg/day
  NEL: < 900 mg/kg/day
  NOAEL: < 900 mg/kg/day
Rat [6]; systemic / in life observation / body weight / body weight + systemic / pathology microscopic / pancreas / hyperplasia
  LOAEL: 500 mg/kg/day
Rat [6]; systemic / in life observation / body weight / body weight + systemic / pathology microscopic / pancreas / hyperplasia + systemic / …
  NOAEL: 240 mg/kg/day
Rat [6]; [25]
  LEL: 120 mg/kg/day
  NEL: < 120 mg/kg/day
Mouse [7]
  LEL: 240 mg/kg/day
  LOAEL: > 3750 mg/kg/day
  NEL: < 240 mg/kg/day
  NOAEL: ≥ 3750 mg/kg/day
Rat [8]; [26]
  LOAEL: 1250 mg/kg/day
  NEL: 60 mg/kg/day
  NOAEL: 550 mg/kg/day
Rat [8]; systemic / hematology / erythrocyte (rbc) count differential / erythrocyte (rbc)
  LEL: 180 mg/kg/day
Rat [9]; [27]
  LEL: 2200 mg/kg/day
  LOAEL: > 2200 mg/kg/day
  NEL: 200 mg/kg/day
  NOAEL: ≥ 2200 mg/kg/day
Rat [9]; [28]
  LOAEL: > 2200 mg/kg/day
  NEL: 20 mg/kg/day
  NOAEL: ≥ 2200 mg/kg/day
Rat [9]; group: parental, systemic / pathology gross / sperm measure / sperm count
  LEL: 200 mg/kg/day
Rat [10]; [29]
  LOAEL: > 1640 mg/kg/day
  NEL: 420 mg/kg/day
  NOAEL: ≥ 1640 mg/kg/day
Rat [10]; group: developmental, developmental / developmental malformation / bone / short supernumerary
  LEL: 1100 mg/kg/day
Rat [10]; [30]
  LOAEL: > 1640 mg/kg/day
  NEL: 420 mg/kg/day
  NOAEL: ≥ 1640 mg/kg/day
Rat [10]; group: maternal, systemic / in life observation / body weight / body weight + systemic / in life observation / body weight / body weight gain + systemic / in…
  LEL: 1100 mg/kg/day
Rat [11]; [31]
  LEL: 100 mg/kg/day
  LOAEL: 100 mg/kg/day
  NEL: < 100 mg/kg/day
  NOAEL: < 100 mg/kg/day
Rat [11]; group: parental, systemic / in life observation / clinical signs / salivation + systemic / organ weight / kidney / absolute + systemic / organ weight / liver…
  LEL: 200 mg/kg/day
Rat [11]; [32]
  LOAEL: > 400 mg/kg/day
  NEL: 100 mg/kg/day
  NOAEL: ≥ 400 mg/kg/day
Rat [11]; [33]
  LEL: 400 mg/kg/day
  LOAEL: > 400 mg/kg/day
  NEL: 200 mg/kg/day
  NOAEL: ≥ 400 mg/kg/day
Mouse [12]; group: developmental, developmental / developmental malformation / bone / exencephaly
  LEL: 910 mg/kg/day
Mouse [12]; [34]
  LOAEL: > 2330 mg/kg/day
  NEL: 182 mg/kg/day
  NOAEL: ≥ 2330 mg/kg/day
Mouse [12]; group: maternal, reproductive / offspring survival early / litter size / litter size + reproductive / offspring survival early / live fetuses / live fetuses
  LEL: 910 mg/kg/day
Mouse [12]; [35]
  LOAEL: > 2330 mg/kg/day
  NEL: 182 mg/kg/day
  NOAEL: ≥ 2330 mg/kg/day
Rat [13]; [36]
  LEL: 300 mg/kg/day
  NEL: < 300 mg/kg/day
Rat [13]; [37]
  LOAEL: > 600 mg/kg/day
  NOAEL: ≥ 600 mg/kg/day
Rat [14]; [38]
  LEL: 100 mg/kg/day
  LOAEL: > 500 mg/kg/day
  NEL: 20 mg/kg/day
  NOAEL: ≥ 500 mg/kg/day
Rat [14]; [32]
  LEL: 100 mg/kg/day
  LOAEL: > 500 mg/kg/day
  NEL: 20 mg/kg/day
  NOAEL: ≥ 500 mg/kg/day
Rat [14]; [39]
  LEL: 500 mg/kg/day
  LOAEL: > 500 mg/kg/day
  NEL: 100 mg/kg/day
  NOAEL: ≥ 500 mg/kg/day

## CC(=O)[C@H]1CC[C@H]2[C@@H]3CCC4=CC(=O)CC[C@]4(C)[C@H]3CC[C@]12C [Progesterone]
dog; [40]
  LOAEL: > 22.5 mg/kg/day
  NOAEL: ≥ 22.5 mg/kg/day
dog; [41]
  LEL: 2.5 mg/kg/day
  NEL: < 2.5 mg/kg/day

## CC(C)NCC(O)COc1cccc2ccccc12.Cl (stereo not drawn) [Propranolol hydrochloride]
Rat [15]
  LEL: 5 mg/kg/day
  LOAEL: > 5 mg/kg/day
  NEL: < 5 mg/kg/day
  NOAEL: ≥ 5 mg/kg/day
Rat [16]
  LEL: 10 mg/kg/day
  LOAEL: > 10 mg/kg/day
  NEL: < 10 mg/kg/day
  NOAEL: ≥ 10 mg/kg/day
